tested on: Haemaphysalis longicornis; assay: Test Example 11: filter paper bag contact test on ticks; format: in vivo; conditions: 48 h, 0.5 mg test compound on 5 cm×10 cm filter paper, after 2 days
Description: 0.5 mg of the test compound was dissolved to […]. Onto one side of filter paper having 5 cm×10 cm, the solution was applied uniformly and then air-dried. Thereafter, the filter paper was folded in half and fixed by paper clips at the side to form bag like shape. Ten Haemaphysalis longicornis was put into the bag, and then the bag was closed with a paper clip. After 2 days, the number of dead insects was examined.

SMILES	mortality at 0.5 mg/filter paper
Cc1ccc(OC(C=CSc2ccccc2)=Nc2ccc(C(C)C)cc2)cc1 [(88), 4-Methylphenyl N-[4-(1-methylethyl)phenyl]-3-(phenylthio)acrylimidate]	100%
Clc1cccc(SC(C=CSc2ccccc2)=Nc2ccccc2)c1 [(3), 3-Chlorophenyl N-phenyl-3-(phenylthio)thioacrylimidate]	100%
Cc1ccc(N=C(C=CSc2ccccc2)SC(C)(C)C)cc1 [(265), 1,1-Dimethylethyl N-(4-methylphenyl)-3-(phenylthio)thioacrylimidate]	100%
Cc1ccc(N=C(C=CSc2cccc(Cl)c2)SCC(C)C)cc1 [(434), Isobutyl 3-(3-chlorophenylthio)-N-(4-methylphenyl)thioacrylimidate]	100%
Cc1ccc(N=C(C=CSc2ccc(F)cc2)SCC(C)C)cc1 [(431), Isobutyl 3-(4-fluorophenylthio)-N-(4-methylphenyl)thioacrylimidate]	100%
C(=CC(=Nc1ccccc1)Oc1ccccc1)Sc1ccccc1 [(37), Phenyl N-phenyl-3-(phenylthio)acrylimidate]	100%
CCC(C)OC(C=CSc1ccc(F)cc1)=Nc1ccc(C)cc1 (stereo not drawn) [(513), 1-Methylpropyl 3-(4-fluorophenylthio)-N-(4-methylphenyl)acrylimidate]	100%
Cc1ccc(N=C(C=CSc2ccc(C)cc2)SC2CCCCC2)cc1 [(473), Cyclohexyl N-(4-methylphenyl)-3-(4-methylphenylthio)thioacrylimidate]	100%
COc1ccc(SC(C=CSc2ccccc2)=Nc2ccccc2)cc1 [(26), 4-Methoxyphenyl N-phenyl-3-(phenylthio)thioacrylimidate]	100%
Cc1ccc(N=C(C=CSc2ccccc2)SCC(C)C)cc1 [(321), 2-Methylpropyl N-(4-methylphenyl)-3-(phenylthio)thioacrylimidate]	100%
CC(C)c1ccc(N=C(C=CSc2ccccc2)Oc2ccc(N)cc2)cc1 [(188), 4-Aminophenyl N-[4-(1-methylethyl)phenyl]-3-(phenylthio)acrylimidate]	100%
Cc1cccc(SC=CC(=Nc2ccccc2)Oc2ccccc2)c1 [(106), Phenyl 3-(3-methylphenylthio)-N-phenylacrylimidate]	100%
Cc1ccc(N=C(C=CSc2ccccc2)Sc2cccs2)cc1 [(480), 2-Thienyl N-(4-methylphenyl)-3-(phenylthio)thioacrylimidate]	100%
FC(F)(F)c1ccc(N=C(C=CSc2ccccc2)Oc2ccccc2)cc1 [(52), Phenyl N-(4-trifluoromethylphenyl)-3-(phenylthio)acrylimidate]	100%
Fc1ccccc1SC=CC(=Nc1ccccc1)Oc1ccccc1 [(104), Phenyl 3-(2-fluorophenylthio)-N-phenylacrylimidate]	100%
CCC(C)SC(C=CSc1ccccc1)=Nc1ccc(C)cc1 (stereo not drawn) [(324), 1-Methylpropyl N-(4-methylphenyl)-3-(phenylthio)thioacrylimidate]	100%
COc1ccc(SC=CC(=Nc2ccccc2)Oc2ccccc2)cc1 [(146), Phenyl 3-(4-methoxyphenylthio)-N-phenylacrylimidate]	100%
Cc1ccc(N=C(C=CSc2cccc(F)c2)SCC(C)C)cc1 [(429), Isobutyl 3-(3-fluorophenylthio)-N-(4-methylphenyl)thioacrylimidate]	100%
Cc1ccc(C)c(SC=CC(=Nc2ccccc2)Oc2ccccc2)c1 [(120), Phenyl 3-(2,5-dimethylphenylthio)-N-phenylacrylimidate]	100%
Fc1ccc(N=C(C=CSc2ccccc2)Sc2ccc(F)cc2)cc1 [(278), 4-Fluorophenyl N-(4-fluorophenyl)-3-(phenylthio)thioacrylimidate]	100%
Cc1ccc(N=C(C=CSc2ccccc2)SC2CCCC2)cc1 [(333), Cyclopentyl N-(4-methylphenyl)-3-(phenylthio)thioacrylimidate]	100%
Clc1ccc(N=C(C=COc2ccccc2)Oc2ccccc2)cc1 [(43), Phenyl N-(4-chlorophenyl)-3-(phenoxy)acrylimidate]	100%
Fc1cccc(N=C(C=CSc2ccccc2)Oc2ccccc2)c1 [(51), Phenyl N-(3-fluorophenyl)-3-(phenylthio)acrylimidate]	100%
Cc1ccc(N=C(C=CSc2ccc(F)cc2)SC2CCCCC2)cc1 [(471), Cyclohexyl 3-(4-fluorophenylthio)-N-(4-methylphenyl)thioacrylimidate]	100%
Cc1ccc(N=C(C=CSc2ccccc2F)SCC(C)C)cc1 [(428), Isobutyl 3-(2-fluorophenylthio)-N-(4-methylphenyl)thioacrylimidate]	100%

SMILES	mortality at 0.5 mg/filter paper
Clc1ccccc1SC(C=CSc1ccccc1)=Nc1ccccc1 [(4), 2-Chlorophenyl N-phenyl-3-(phenylthio)thioacrylimidate]	100%
Brc1cccc(SC=CC(=Nc2ccccc2)Oc2ccccc2)c1 [(101), Phenyl 3-(3-bromophenylthio)-N-phenylacrylimidate]	100%
Fc1ccc(N=C(C=COc2ccccc2)Oc2ccccc2)cc1 [(75), Phenyl N-(4-fluorophenyl)-3-(phenoxy)acrylimidate]	100%
C(=CC(=Nc1ccccc1)Sc1ccccc1)Oc1ccccc1 [(35), Phenyl N-phenyl-3-(phenoxy)thioacrylimidate]	100%
Fc1ccc(N=C(C=CSc2ccccc2)Sc2ccccc2)cc1 [(264), Phenyl N-(4-fluorophenyl)-3-(phenylthio)thioacrylimidate]	100%
Fc1ccc(SC=CC(=Nc2ccccc2)Oc2ccccc2)cc1 [(103), Phenyl 3-(4-fluorophenylthio)-N-phenylacrylimidate]	100%
CCCCSC(C=CSc1ccc(Cl)cc1)=Nc1ccc(C)cc1 [(475), Butyl 3-(4-chlorophenylthio)-N-(4-methylphenyl)thioacrylimidate]	100%
Cc1ccc(N=C(C=CSc2ccccc2)Sc2ccccc2)cc1 [(28), Phenyl N-(4-methylphenyl)-3-phenylthiothioacrylimidate]	100%
Fc1ccccc1N=C(C=CSc1ccccc1)Oc1ccccc1 [(48), Phenyl N-(2-fluorophenyl)-3-(phenylthio)acrylimidate]	100%
Clc1cccc(N=C(C=COc2ccccc2)Oc2ccccc2)c1 [(45), Phenyl N-(3-chlorophenyl)-3-(phenoxy)acrylimidate]	100%
Clc1ccc(N=C(C=COc2ccccc2)Oc2ccccc2)cc1Cl [(59), Phenyl N-(3,4-dichlorophenyl)-3-(phenoxy)acrylimidate]	100%
Cc1ccc(N=C(C=CSc2ccccc2C)SCC(C)C)cc1 [(441), Isobutyl N-(4-methylphenyl)-3-(2-methylphenylthio)thioacrylimidate]	100%
C#Cc1ccc(N=C(C=COc2ccccc2)Oc2ccccc2)cc1 [(156), Phenyl N-(4-ethynylphenyl)-3-(phenoxy)acrylimidate]	100%
FC(F)(F)c1ccc(SC=CC(=Nc2ccccc2)Oc2ccccc2)cc1 [(123), Phenyl N-phenyl-3-(4-trifluoromethylphenylthio)acrylimidate]	100%
C(=CC(=Nc1ccccc1)Sc1ccccc1)Sc1ccccc1 [(1), Phenyl N-phenyl-3-(phenylthio)thioacrylimidate]	100%
CCSC(C=CSc1ccccc1)=Nc1ccc(C)cc1 [(266), Ethyl N-(4-methylphenyl)-3-(phenylthio)thioacrylimidate]	100%
Cc1ccc(N=C(C=CSc2ccccc2F)SCC2CCCCC2)cc1 [(341), Cyclohexylmethyl 3-(2-fluorophenylthio)-N-(4-methylphenyl)-thioacrylimidate]	100%
Cc1ccc(SC=CC(=Nc2ccccc2)Oc2ccccc2)c(C)c1 [(119), Phenyl 3-(2,4-dimethylphenylthio)-N-phenylacrylimidate]	100%
Cc1cc(C)cc(SC=CC(=Nc2ccccc2)Oc2ccccc2)c1 [(121), Phenyl 3-(3,5-dimethylphenylthio)-N-phenylacrylimidate]	100%
COc1cccc(SC=CC(=Nc2ccc(C)cc2)SCC(C)C)c1 [(446), Isobutyl 3-(3-methoxyphenylthio)-N-(4-methylphenyl)thioacrylimidate]	100%
CCCCSC(C=CSc1ccccc1)=Nc1ccc(C)cc1 [(284), Butyl N-(4-methylphenyl)-3-(phenylthio)thioacrylimidate]	100%
Cc1ccc(N=C(C=CSc2ccccc2)Oc2ccccc2)cc1 [(54), Phenyl N-(4-methylphenyl)-3-(phenylthio)acrylimidate]	100%
CCc1ccc(N=C(C=CSc2ccccc2)Oc2ccccc2)cc1 [(63), Phenyl N-(4-ethylphenyl)-3-(phenylthio)acrylimidate]	100%
Cc1ccc(N=C(C=CSc2ccc(Cl)cc2)SC2CCCCC2)cc1 [(472), Cyclohexyl 3-(4-chlorophenylthio)-N-(4-methylphenyl)thioacrylimidate]	100%
Cc1ccc(N=C(C=CSc2ccc(Cl)cc2)SCC(C)C)cc1 [(435), Isobutyl 3-(4-chlorophenylthio)-N-(4-methylphenyl)thioacrylimidate]	100%

tested on: not given; assay: not given; conditions: not given

melting point	SMILES
175 to 178 °C	Cc1cc(C)nc(SC=CC(=Nc2ccccc2)Oc2ccccc2)n1 [(124), Phenyl 3-(4,6-dimethyl-2-pyrimidinylthio)-N-phenylacrylimidate]

— patent publication US8084644B2, “Iminopropene compound and use thereof” (Sumitomo Chemical Company, Limited, priority 2005, dated 2011)
